The source of these data is ChEMBL document CHEMBL5247649, “Comparative Efficacy and Selectivity of Pharmacological Inhibitors of DYRK and CLK Protein Kinases” (J Med Chem, 2023).

In general, IC50 refers to the midpoint of a concentration-inhibition curve. By Kd is commonly meant the constant that tells how readily two partners part at equilibrium. Read a low Kd as tighter binding.

Molecules are shown by their SMILES.

Data set [1] has as its target T1, Dual specificity tyrosine-phosphorylation-regulated kinase 4 (Homo sapiens, UniProt Q9NR20).
T1 sequence (Q9NR20 whole entry): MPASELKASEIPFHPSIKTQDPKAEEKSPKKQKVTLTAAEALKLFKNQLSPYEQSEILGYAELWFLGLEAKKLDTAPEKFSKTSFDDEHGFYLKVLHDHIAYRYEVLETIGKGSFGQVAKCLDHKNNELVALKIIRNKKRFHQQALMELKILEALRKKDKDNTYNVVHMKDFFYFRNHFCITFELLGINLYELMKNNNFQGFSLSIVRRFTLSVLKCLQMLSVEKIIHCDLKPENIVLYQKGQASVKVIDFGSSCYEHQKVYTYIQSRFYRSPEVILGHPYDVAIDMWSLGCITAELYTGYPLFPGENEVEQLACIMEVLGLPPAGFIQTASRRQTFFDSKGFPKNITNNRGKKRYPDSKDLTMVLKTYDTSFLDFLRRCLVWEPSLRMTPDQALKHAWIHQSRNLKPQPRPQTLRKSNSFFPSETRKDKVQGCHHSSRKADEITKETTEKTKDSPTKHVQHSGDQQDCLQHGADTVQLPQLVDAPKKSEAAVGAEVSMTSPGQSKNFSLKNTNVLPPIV
Put plainly: biochemical. It is filed as cell-based, Sf9.

Data set [2] deals with T2, Dual specificity protein kinase CLK1 (Homo sapiens, UniProt P49759). Put plainly: biochemical. Format: cell-based, Sf9.
T2 sequence (P49759 whole entry): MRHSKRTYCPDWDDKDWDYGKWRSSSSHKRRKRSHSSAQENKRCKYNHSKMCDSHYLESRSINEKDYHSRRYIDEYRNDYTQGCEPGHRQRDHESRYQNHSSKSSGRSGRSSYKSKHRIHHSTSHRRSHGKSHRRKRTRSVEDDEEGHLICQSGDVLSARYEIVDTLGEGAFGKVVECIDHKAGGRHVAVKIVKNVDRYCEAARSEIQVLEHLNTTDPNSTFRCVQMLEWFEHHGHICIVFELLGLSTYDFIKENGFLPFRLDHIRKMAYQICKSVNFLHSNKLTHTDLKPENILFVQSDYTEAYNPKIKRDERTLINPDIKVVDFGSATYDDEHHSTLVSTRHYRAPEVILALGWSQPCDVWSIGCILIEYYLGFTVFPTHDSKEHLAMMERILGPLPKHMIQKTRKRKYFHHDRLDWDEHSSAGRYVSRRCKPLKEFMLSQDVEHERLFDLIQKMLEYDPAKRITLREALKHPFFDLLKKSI
Data set [3] deals with T3, Dual specificity tyrosine-phosphorylation-regulated kinase 3 (Homo sapiens, UniProt O43781).
T3 sequence (O43781 whole entry): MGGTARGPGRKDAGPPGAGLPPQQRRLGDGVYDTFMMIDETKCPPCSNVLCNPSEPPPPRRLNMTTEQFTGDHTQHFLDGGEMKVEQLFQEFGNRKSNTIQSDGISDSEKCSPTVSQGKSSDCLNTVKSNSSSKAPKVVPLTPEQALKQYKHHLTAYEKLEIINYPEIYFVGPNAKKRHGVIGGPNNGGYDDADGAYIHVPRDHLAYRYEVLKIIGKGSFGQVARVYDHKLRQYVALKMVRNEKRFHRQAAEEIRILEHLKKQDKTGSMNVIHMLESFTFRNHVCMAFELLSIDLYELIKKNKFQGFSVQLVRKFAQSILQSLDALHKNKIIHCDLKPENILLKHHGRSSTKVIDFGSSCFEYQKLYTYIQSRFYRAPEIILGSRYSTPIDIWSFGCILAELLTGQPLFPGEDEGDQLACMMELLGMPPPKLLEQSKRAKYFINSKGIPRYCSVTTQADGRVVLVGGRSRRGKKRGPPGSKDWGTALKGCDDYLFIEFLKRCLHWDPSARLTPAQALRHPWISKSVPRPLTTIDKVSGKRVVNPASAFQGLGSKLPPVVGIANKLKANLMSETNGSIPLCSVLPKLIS
Nature of the data set: biochemical. Format: cell-based, Sf9.

Data set [4] deals with Cyclin-dependent kinase 5/CDK5 activator 1 (Homo sapiens, UniProt Q00535). Put plainly: biochemical. It is filed as cell-based, Sf9.
Chain of Cyclin-dependent kinase 5/CDK5 activator 1 (Q00535 whole entry): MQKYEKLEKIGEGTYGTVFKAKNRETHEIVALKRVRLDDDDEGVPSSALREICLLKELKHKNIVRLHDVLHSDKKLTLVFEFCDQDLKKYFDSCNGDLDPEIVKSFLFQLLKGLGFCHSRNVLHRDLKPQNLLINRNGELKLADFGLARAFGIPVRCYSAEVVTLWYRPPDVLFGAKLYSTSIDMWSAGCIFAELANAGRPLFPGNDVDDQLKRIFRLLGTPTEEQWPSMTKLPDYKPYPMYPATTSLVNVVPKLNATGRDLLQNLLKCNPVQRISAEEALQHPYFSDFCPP
Chain of Cyclin-dependent kinase 5/CDK5 activator 1 (Q15078 whole entry, further chain): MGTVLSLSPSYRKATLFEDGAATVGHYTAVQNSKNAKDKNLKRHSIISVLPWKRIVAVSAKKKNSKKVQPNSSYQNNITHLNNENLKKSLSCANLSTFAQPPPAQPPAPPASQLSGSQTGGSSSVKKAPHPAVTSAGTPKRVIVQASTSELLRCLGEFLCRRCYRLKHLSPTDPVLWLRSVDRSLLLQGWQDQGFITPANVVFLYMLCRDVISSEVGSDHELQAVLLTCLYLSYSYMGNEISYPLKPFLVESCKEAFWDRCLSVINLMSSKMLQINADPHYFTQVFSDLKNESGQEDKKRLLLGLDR
Data set [5] concerns the target Dual specificity protein kinase CLK4 (Homo sapiens, UniProt Q9HAZ1). Nature of the data set: biochemical.
Data set [6] concerns the target Dual specificity protein kinase CLK3 (Homo sapiens, UniProt P49761). Put plainly: biochemical. It is filed as cell-based, Sf9.
A short description of data set [7]: in vitro. Conditions: mouse, ht-22; call rule not given here.
Data set [8] addresses Dual specificity protein kinase CLK2 (Homo sapiens, UniProt P49760). Put plainly: biochemical.
Data set [9] has as its target T4, Dual specificity tyrosine-phosphorylation-regulated kinase 2 (Homo sapiens, UniProt Q92630).
T4 sequence (Q92630 whole entry): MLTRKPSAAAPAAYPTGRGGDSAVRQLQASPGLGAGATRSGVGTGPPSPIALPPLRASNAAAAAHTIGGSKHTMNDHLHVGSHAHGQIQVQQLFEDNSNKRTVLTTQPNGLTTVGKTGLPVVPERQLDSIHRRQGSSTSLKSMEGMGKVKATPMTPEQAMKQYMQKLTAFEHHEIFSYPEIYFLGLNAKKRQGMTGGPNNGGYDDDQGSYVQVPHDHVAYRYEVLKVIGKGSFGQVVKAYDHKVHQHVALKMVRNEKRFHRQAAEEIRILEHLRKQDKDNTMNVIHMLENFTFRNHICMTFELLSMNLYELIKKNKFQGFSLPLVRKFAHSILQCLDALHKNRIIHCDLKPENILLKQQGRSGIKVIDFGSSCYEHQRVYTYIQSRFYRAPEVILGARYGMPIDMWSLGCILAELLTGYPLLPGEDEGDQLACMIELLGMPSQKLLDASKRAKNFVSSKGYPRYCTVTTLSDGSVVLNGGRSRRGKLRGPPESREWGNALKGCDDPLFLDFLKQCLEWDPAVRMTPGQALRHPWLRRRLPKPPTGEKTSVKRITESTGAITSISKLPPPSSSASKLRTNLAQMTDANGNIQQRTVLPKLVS
Nature of the data set: biochemical. Format: cell-based, Sf9.

Data set [10] addresses T5, Glycogen synthase kinase-3 beta (Homo sapiens, UniProt P49841). Put plainly: biochemical. It is filed as cell-based, Sf9.
Data set [11] has as its target T5, Glycogen synthase kinase-3 beta.
Data set [12] deals with T2, Dual specificity protein kinase CLK1.
Data set [13] has as its target Casein kinase I isoform epsilon (Homo sapiens, UniProt P49674). Put plainly: biochemical. Format: cell-based, Sf9.
The target in data set [14] is T2, Dual specificity protein kinase CLK1. Nature of the data set: biochemical. It is filed as cell-based, Sf9. This is another data set of the same source.

Chain of Casein kinase I isoform epsilon (P49674 whole entry, canonical isoform): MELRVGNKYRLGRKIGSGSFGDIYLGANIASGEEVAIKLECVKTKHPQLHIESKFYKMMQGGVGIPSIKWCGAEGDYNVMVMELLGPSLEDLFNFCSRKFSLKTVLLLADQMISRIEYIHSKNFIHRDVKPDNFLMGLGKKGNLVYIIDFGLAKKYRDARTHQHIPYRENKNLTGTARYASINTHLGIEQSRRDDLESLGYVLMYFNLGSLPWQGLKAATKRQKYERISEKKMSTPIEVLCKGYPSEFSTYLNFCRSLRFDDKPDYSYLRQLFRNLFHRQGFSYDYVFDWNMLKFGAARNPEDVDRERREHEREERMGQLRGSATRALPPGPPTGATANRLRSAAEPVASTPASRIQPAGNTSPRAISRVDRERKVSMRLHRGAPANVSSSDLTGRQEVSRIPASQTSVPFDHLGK
Chain of Dual specificity protein kinase CLK3 (P49761 whole entry): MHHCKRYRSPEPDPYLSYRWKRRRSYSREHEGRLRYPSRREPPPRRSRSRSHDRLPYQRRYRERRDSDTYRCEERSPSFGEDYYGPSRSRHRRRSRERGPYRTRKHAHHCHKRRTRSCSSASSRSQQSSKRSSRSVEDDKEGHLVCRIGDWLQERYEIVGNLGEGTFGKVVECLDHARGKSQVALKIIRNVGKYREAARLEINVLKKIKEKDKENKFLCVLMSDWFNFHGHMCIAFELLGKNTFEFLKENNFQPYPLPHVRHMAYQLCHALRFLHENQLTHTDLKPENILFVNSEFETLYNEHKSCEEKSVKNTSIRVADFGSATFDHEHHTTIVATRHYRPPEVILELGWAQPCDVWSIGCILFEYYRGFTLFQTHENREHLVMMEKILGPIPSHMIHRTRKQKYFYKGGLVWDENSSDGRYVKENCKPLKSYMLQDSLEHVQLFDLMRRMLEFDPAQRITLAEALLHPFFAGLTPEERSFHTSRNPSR
Chain of Dual specificity protein kinase CLK4 (Q9HAZ1 whole entry): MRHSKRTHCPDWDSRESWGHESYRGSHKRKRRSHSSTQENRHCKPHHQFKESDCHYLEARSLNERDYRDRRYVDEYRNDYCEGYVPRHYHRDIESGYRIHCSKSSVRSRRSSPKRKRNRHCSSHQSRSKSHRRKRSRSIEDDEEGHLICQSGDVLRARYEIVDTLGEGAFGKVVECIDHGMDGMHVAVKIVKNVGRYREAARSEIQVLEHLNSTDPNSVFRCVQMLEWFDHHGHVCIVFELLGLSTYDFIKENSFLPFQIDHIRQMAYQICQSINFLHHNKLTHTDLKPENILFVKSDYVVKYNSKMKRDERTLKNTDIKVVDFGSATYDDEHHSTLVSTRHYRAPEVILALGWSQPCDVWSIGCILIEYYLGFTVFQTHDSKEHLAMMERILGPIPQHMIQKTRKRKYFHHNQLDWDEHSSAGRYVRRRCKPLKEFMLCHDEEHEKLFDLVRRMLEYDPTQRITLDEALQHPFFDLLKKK
T5 sequence (P49841 whole entry): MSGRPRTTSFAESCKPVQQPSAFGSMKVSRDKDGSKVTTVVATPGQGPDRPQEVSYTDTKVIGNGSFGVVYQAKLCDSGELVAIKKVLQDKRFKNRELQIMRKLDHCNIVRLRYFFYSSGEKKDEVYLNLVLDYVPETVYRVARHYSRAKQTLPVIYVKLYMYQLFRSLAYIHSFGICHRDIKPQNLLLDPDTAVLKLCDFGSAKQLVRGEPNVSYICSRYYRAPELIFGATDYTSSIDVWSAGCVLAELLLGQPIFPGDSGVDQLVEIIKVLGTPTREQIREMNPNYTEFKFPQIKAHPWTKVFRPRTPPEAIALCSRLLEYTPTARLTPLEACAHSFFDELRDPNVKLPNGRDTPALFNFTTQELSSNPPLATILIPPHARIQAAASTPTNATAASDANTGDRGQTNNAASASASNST
Chain of Dual specificity protein kinase CLK2 (P49760 whole entry): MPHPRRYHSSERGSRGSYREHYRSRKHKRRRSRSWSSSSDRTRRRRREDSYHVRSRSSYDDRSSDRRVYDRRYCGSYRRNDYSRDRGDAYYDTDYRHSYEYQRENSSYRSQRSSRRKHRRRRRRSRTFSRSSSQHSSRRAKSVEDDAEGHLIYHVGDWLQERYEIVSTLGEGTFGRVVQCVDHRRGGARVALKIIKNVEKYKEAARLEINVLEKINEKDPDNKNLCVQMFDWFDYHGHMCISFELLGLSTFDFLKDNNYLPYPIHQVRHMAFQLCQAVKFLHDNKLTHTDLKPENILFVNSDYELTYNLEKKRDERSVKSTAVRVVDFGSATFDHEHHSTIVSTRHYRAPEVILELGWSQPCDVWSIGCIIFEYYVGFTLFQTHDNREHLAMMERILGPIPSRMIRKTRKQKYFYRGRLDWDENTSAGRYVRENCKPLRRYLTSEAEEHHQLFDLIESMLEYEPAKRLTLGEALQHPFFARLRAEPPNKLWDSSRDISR

With `CCN1/C(=C/C(C)=O)Sc2ccc(O)cc21`, the concentration for half-maximal inhibition (IC50) was 894 nM in [1]; 44.2 nM in data set [2]; 82.6 nM in data set [3]; > 10000 nM in [4]; 10.9 nM in data set [5]; 4790 nM in data set [6]. For the same compound, the IC50 was determined as 315 nM in data set [8], 226 nM in data set [9], 4400 nM in data set [10] and 2980 nM in data set [13]. Also, the concentration for half-maximal inhibition (IC50) at 48 h in data set [7] was > 100000 nM. The Kd is 1640 nM in data set [11] and 1.27 nM in data set [12].
Consider `c1ccc(-c2ccc3[nH]ncc3c2)cc1`, for which the half-maximal inhibitory concentration (IC50) was > 10000 nM in [1]; 39.6 nM in data set [2]; 5850 nM in data set [3]; 1800 nM in data set [4]; 15 nM in data set [5]; 1690 nM in data set [6]. The IC50 in data set [14] (read-out: IC50) was 24.2 nM; in [8], 211 nM; in data set [9], 1250 nM; in [10] it was 7510 nM; in data set [13], > 10000 nM. Moreover, the IC50 at 48 h in [7] amounted to 42500 nM. For the same compound, the Kd in [11] was 1980 nM; in data set [12] it was 1.63 nM.
For the compound `COc1cc(N2CCN(C)CC2)ccc1Nc1nccc(-c2cn(C)c3cnccc23)n1`, the IC50 in data set [1] was 6250 nM; in [2], 568 nM; in data set [3] it was 1220 nM; in [4], 1060 nM; in [5], 403 nM; in [6], > 10000 nM. Also, the IC50 is 175 nM in data set [14] (read-out: IC50); 3500 nM in data set [8]; 764 nM in data set [9]; > 10000 nM in data set [10]; > 10000 nM in data set [13]. For the same compound, in data set [7], half-maximal inhibition (IC50 at 48 h) required 27800 nM. Moreover, the values for the dissociation constant (Kd) in [11] and in data set [12] were > 10000 nM and 7.35 nM, respectively.
Turning to `O=C(O)c1nc2ccccc2c2[nH]c3c(I)cccc3c12`, the half-inhibitory concentration (IC50) in [1] is > 10000 nM; in data set [2], 3610 nM; in [5] it was 316 nM; in data set [6] it was > 10000 nM; in data set [14] (read-out: IC50), 14.6 nM; in data set [8], 5140 nM. The IC50 in data set [10] and in data set [13] was > 10000 nM in each case. For the same compound, in [7], the IC50 at 48 h is > 100000 nM. The values for the dissociation constant Kd in data set [11] and in [12] were 475 nM and 6.22 nM, respectively.
For `COC(=N)c1nc2ccc3ncnc(Nc4ccc(OC)cc4F)c3c2s1`, the 50% inhibitory concentration (IC50) was > 10000 nM in data set [1]; 1210 nM in data set [2]; > 10000 nM in data set [3]; > 10000 nM in data set [4]; 79.6 nM in data set [5]; > 10000 nM in [6]. Besides, the half-maximal inhibitory concentration (IC50) was 111 nM in data set [14] (read-out: IC50); > 10000 nM in data set [8]; 323 nM in data set [9]; 5330 nM in [10]; > 10000 nM in [13]. This compound showed a half-inhibitory concentration (IC50) at 48 h in data set [7] of 21600 nM. In addition, the Kd in data set [11] turned out to be 160 nM; in [12], 7.63 nM.
As to `COc1ccc2c3ccnc(Cl)c3n(CC#N)c2c1`, the concentration for half-maximal inhibition (IC50) in data set [1] is 8370 nM; in data set [2] it was 157 nM; in data set [3], 1220 nM; in data set [4] it was > 10000 nM; in [5], 23.8 nM; in data set [6] it was 4920 nM. Also, the IC50 was 88.3 nM in data set [14] (read-out: IC50); 630 nM in data set [8]; 813 nM in [9]; > 10000 nM in data set [10]; > 10000 nM in data set [13]. The IC50 at 48 h in data set [7] came out at 97000 nM. Also, the dissociation constant Kd in data set [11] is 2580 nM; in [12], 8.7 nM.
Take `CN(C)c1nccc(-c2cnn3ncccc23)n1`: the half-inhibitory concentration (IC50) is 9590 nM in data set [1]; 319 nM in data set [2]; 4450 nM in [3]; 9670 nM in data set [4]; 219 nM in [5]; 2970 nM in data set [6]. For the same compound, the half-inhibitory concentration (IC50) was 3270 nM in [9], > 10000 nM in data set [10] and > 10000 nM in [13]. For the same compound, the IC50 at 48 h in data set [7] came out at 58600 nM. In addition, the Kd is > 10000 nM in [11] and 5.38 nM in [12].
As for `CN1Cc2nn(C)c(C#N)c2-c2cnc3[nH]c(F)c(c3c2)-c2cn(nc2C(F)(F)F)CCCC1=O`, the half-maximal inhibitory concentration (IC50) in [1] is > 10000 nM; in [3], > 10000 nM; in data set [4], > 10000 nM; in data set [5], > 10000 nM; in data set [6], > 10000 nM; in [14] (sf9), “Not Active”. The IC50 in data set [8] was 2500 nM; in [9], 1100 nM; in data set [10], 3390 nM; in [13], > 10000 nM. Also, the IC50 at 48 h in data set [7] was > 100000 nM. Also, in data set [11], the Kd came to 936 nM.
As to `COC1=CC2C(=O)NC3=Cc4ccc(OC)cc4C(=C1OC)C32` (stereo not drawn), the half-inhibitory concentration (IC50) in data set [1] was 3690 nM; in data set [2] it was 11.4 nM; in data set [3], 23.5 nM; in [4], > 10000 nM; in [5], 6.7 nM; in data set [6] it was 640 nM. In addition, the IC50 in [14] (read-out: IC50) is 31.8 nM; in data set [8], 33.3 nM; in data set [9], 26.8 nM; in data set [10] it was 2200 nM; in [13], > 10000 nM. Also, the IC50 at 48 h in data set [7] came to 20900 nM. The Kd in data set [11] came out at 396 nM; in data set [12] it was 0.58 nM.
Take `O=c1c2c(O)cc(O)cc2oc2c(O)ccc(O)c12` [DEMETHYLBELLIDIFOLIN]: the IC50 is > 10000 nM in [1]; 239 nM in data set [2]; > 10000 nM in [3]; > 10000 nM in [4]; 146 nM in data set [5]; 7530 nM in data set [6]. The IC50 is 1700 nM in data set [8], 2710 nM in [9], > 10000 nM in [10] and > 10000 nM in data set [13]. Half-maximal inhibition in [7] (IC50 at 48 h) required 2500 nM. Besides, the figures for the dissociation constant Kd in [11] and in [12] were > 10000 nM and 29.7 nM, respectively.
Turning to `CN1C(=O)/C(=C/c2ccc3c(c2)OCO3)N=C1N` [LEUCETTAMINE B], the IC50 in [1] is 6370 nM; in [2] it was 646 nM; in data set [3] it was 4890 nM; in data set [5] it was 396 nM; in data set [6], > 10000 nM; in data set [8] it was 3090 nM. For the same compound, the concentration for half-maximal inhibition (IC50) in [9] is 2730 nM; in data set [10] it was > 10000 nM; in data set [13], > 10000 nM. Moreover, the 50% inhibitory concentration (IC50) at 48 h in data set [7] was > 100000 nM. Further, the dissociation constant (Kd) is > 10000 nM in data set [11] and 36.9 nM in [12].
